Source: US9834542B2, “LXR modulators” (BRISTOL-MYERS SQUIBB COMPANY, priority 2013, dated 2017)

Target: T1, LXRβ (Homo sapiens, UniProt P55055)
T1 construct: Co-transfection expression plasmids, comprising full-length LXRα (pCMX-h LXRα[…] or LXRβ (pCMX-hLXRβ)); expressed in transfected cells; host or cells: CV-1 African Green Monkey Kidney Cells
T1 sequence (P55055 1-460): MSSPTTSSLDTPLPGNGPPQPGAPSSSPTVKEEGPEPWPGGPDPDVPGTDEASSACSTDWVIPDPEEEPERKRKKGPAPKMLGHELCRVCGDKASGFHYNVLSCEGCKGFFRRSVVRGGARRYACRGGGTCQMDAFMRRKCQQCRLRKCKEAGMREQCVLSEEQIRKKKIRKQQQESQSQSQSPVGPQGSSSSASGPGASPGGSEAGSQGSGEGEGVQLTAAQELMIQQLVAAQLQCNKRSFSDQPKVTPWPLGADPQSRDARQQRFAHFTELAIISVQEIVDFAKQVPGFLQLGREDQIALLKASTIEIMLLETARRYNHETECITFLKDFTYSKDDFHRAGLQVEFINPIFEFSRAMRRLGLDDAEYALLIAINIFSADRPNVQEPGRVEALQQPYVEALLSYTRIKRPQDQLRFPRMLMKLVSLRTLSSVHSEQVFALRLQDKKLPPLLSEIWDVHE
T1 sequence (P19793 1-462 partner): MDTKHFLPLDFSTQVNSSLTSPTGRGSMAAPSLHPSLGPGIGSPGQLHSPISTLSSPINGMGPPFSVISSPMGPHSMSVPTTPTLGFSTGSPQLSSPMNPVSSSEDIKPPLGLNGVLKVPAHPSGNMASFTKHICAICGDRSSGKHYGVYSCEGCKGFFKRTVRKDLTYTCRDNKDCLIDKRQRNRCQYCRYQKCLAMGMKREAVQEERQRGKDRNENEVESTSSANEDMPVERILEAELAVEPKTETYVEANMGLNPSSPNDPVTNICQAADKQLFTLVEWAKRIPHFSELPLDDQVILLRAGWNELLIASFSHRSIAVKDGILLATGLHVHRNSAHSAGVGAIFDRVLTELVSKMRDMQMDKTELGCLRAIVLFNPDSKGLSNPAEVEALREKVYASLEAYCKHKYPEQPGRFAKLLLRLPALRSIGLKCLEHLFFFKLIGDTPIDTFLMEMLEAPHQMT
Assay: Co-transfection assay (LXRE luciferase reporter), LXRβ
Assay type: cell-based
Details: for EC50: CV-1 cells transfected with pCMX-hLXRβ and LXREx1-Tk-Luciferase, 20 hours incubation; for Emax: LXRβ co-transfection, relative to high control 1-(2,4-difluorobenzyl)-2-oxo-6-(4-phenoxyphenyl)-4-(trifluoromethyl)-1,2-dihydropyridine-3-carbonitrile, read-out: % Efficacy
Procedure, shortened: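 CV-1 cells transiently co-transfected with full-length human LXRβ (or LXRα), LXREx1-Tk-luciferase reporter and β-galactosidase control; compound added (10 μM final in single-point, 11-point ½-log curves, ≤0.5% DMSO) for 20 h at 37 °C. Luciferase read; EC50 from four-parameter fit, efficacy relative to reference agonist high control.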

Structure (SMILES) | EC50 | Emax
Cc1nc(C(F)(F)F)cn1-c1ccc(-c2cc(F)c(CO)c(S(C)(=O)=O)c2)cc1-n1nncc1Cc1cccc(Cl)c1 [Example 120, (3′-{5-[(3-chlorophenyl)methyl]-1H-1,2,3-triazol-1-yl}-3-fluoro-5-(methylsulfonyl)-4′-[2-methyl-4-(trifluoromethyl)-1H-imidazol-1-yl]biphenyl-4-yl)methanol] | 795 nM | 91%
Cc1nc(C(F)(F)F)cn1-c1ccc(-c2cc(Cl)c(CO)c(S(C)(=O)=O)c2)cc1-n1nncc1-c1ccc(Cl)cc1Cl [Example 18, {3-chloro-3′-[5-(2,4-dichlorophenyl)-1H-1,2,3-triazol-1-yl]-5-(methylsulfonyl)-4′-[2-methyl-4-(trifluoromethyl)-1H-imidazol-1-yl]biphenyl-4-yl}methanol] | 283 nM | 62%
Cc1nc(-c2cc(-c3cccc(S(C)(=O)=O)c3)ccc2-n2cc(C(F)(F)F)nc2C)c(-c2cccnc2C)o1 [Example 394, 2-methyl-4-(4-(2-methyl-4-(trifluoromethyl)-1H-imidazol-1-yl)-3′-(methylsulfonyl)biphenyl-3-yl)-5-(2-methylpyridin-3-yl)oxazole] | 615 nM | 60%
Cc1nc(C(F)(F)F)cn1-c1ccc(-c2cccc(S(C)(=O)=O)c2)cc1-n1nncc1-c1ccc(F)c(Cl)c1 [Example 33, 5-(3-chloro-4-fluorophenyl)-1-{3′-(methylsulfonyl)-4-[2-methyl-4-(trifluoromethyl)-1H-imidazol-1-yl]biphenyl-3-yl}-1H-1,2,3-triazole] | 649 nM | 103%
Cc1nc(C(F)(F)F)cn1-c1ccc(-c2cc(F)c(CO)c(S(C)(=O)=O)c2)cc1-c1nc(CCO)oc1-c1ccc2c(c1)OC(F)(F)O2 [Example 530, 2-(5-(2,2-difluorobenzo[d][1,3]dioxol-5-yl)-4-(3′-fluoro-4′-(hydroxymethyl)-4-(2-methyl-4-(trifluoromethyl)-1H-imidazol-1-yl)-5′-(methylsulfonyl)-[1,1′-biphenyl]-3-yl)oxazol-2-yl)ethanol] | 739 nM | 71%
Cc1ncc(-c2oc(C)nc2-c2cc(-c3cc(F)c(CO)c(S(C)(=O)=O)c3)ccc2-n2cc(C(F)(F)F)nc2C)cn1 [Example 428, (3-fluoro-4′-(2-methyl-4-(trifluoromethyl)-1H-imidazol-1-yl)-3′-(2-methyl-5-(2-methylpyrimidin-5-yl)oxazol-4-yl)-5-(methylsulfonyl)biphenyl-4-yl)methanol] | 3090 nM | 50%
Cc1nc(C(F)(F)F)cn1-c1ccc(-c2cccc(S(C)(=O)=O)c2)cc1-n1nncc1-c1ccc(F)cc1F [Example 40, 5-(2,4-difluorophenyl)-1-{3′-(methylsulfonyl)-4-[2-methyl-4-(trifluoromethyl)-1H-imidazol-1-yl]biphenyl-3-yl}-1H-1,2,3-triazole] | 954 nM | 87%

Results, then the compound that gave them:

EC50 | Emax | Structure (SMILES)
25 nM | 87% | CCCc1nc(-c2ccc(OC(F)(F)F)cc2)c(-c2cc(-c3cccc(S(C)(=O)=O)c3)ccc2-n2cc(C(F)(F)F)nc2C)o1 [Example 602, 5-{3′-(methylsulfonyl)-4-[2-methyl-4-(trifluoromethyl)-1H-imidazol-1-yl]biphenyl-3-yl}-2-propyl-4-{4-[(trifluoromethyl)oxy]phenyl}-1,3-oxazole]
127 nM | 50% | Cc1nc(-c2cc(-c3cccc(S(C)(=O)=O)c3)ccc2-n2cc(C(F)(F)F)nc2C)c(-c2cccc(OC(F)(F)F)c2)o1 [Example 573, 2-methyl-4-(4-(2-methyl-4-(trifluoromethyl)-1H-imidazol-1-yl)-3′-(methylsulfonyl)-[1,1′-biphenyl]-3-yl)-5-(3-(trifluoromethoxy)phenyl)oxazole]
249 nM | 68% | Cc1nc(C(F)(F)F)cn1-c1ccc(-c2cccc(S(C)(=O)=O)c2)cc1-c1ocnc1Cc1ccc(Cl)cc1 [Example 634, 4-(4-chlorobenzyl)-5-(4-(2-methyl-4-(trifluoromethyl)-1H-imidazol-1-yl)-3′-(methylsulfonyl)-[1,1′-biphenyl]-3-yl)oxazole]
